Calls of active or inactive are those of the source. No cut-off for these calls is given here.

For data set [1], the system named is L929. The data set is described as follows: Inhibition of TNF-alpha induced necroptosis in mouse L929 cells assessed as increase in cell viability at 30 uM incubated for 18 hrs in presence of zVAD by Cell Titer-Glo luminescent cell viability assay. The data set is classed as functional, cell-based. Background: In ATP-based viability assays light output follows the ATP content of the culture.

The subject of data set [2] is SVEC4-10. The data set is described as follows: Inhibition of TNF-induced necroptosis in mouse SVEC4-10 cells assessed as increase in cell viability incubated for 18 hrs in presence of zVAD by Cell Titer-Glo luminescent cell viability assay. Format: functional, cell-based.
Data set [3] has as its system L929. Nature of the data set: Inhibition of TLR-3 induced necroptosis in mouse L929 cells assessed as increase in cell viability at 30 uM incubated for 18 hrs in presence of zVAD and poly(I:C) by Cell Titer-Glo luminescent cell viability assay. The data set is classed as functional, cell-based.
Data set [4] deals with SVEC4-10. The data set is described as follows: Inhibition of DAI-induced necroptosis in MCMV M45mutRHIM infected mouse SVEC4-10 cells assessed as increase in cell viability incubated for 18 hrs by Cell Titer-Glo luminescent cell viability assay. The data set is classed as functional, cell-based.
Data set [5] deals with L929. The data set is described as follows: Inhibition of TNF-alpha induced necroptosis in mouse L929 cells assessed as increase in cell viability at 10 uM incubated for 18 hrs in presence of zVAD by Cell Titer-Glo luminescent cell viability assay. Format: functional, cell-based.
In data set [6] the test system is L929. Nature of the data set: Inhibition of TLR-3 induced necroptosis in mouse L929 cells assessed as increase in cell viability at 10 uM incubated for 18 hrs in presence of zVAD and poly(I:C) by Cell Titer-Glo luminescent cell viability assay. Format: functional, cell-based.
For data set [7], the system named is 3T3SA. Nature of the data set: Induction of apoptosis in mouse 3T3SA cells assessed as cell death by measuring percent of PI positive cells incubated for 3 hrs in presence of TNF by PI staining based flow cytometric analysis (reference value: 10.7%). Format: toxicity. For orientation: Flow cytometry measures light scatter and fluorescence of single cells or particles in a stream.

Data set [8] deals with 3T3SA. The data set is described as follows: Induction of apoptosis in mouse 3T3SA cells assessed as cell death by measuring percent of PI positive cells incubated for 8 hrs in presence of TNF by PI staining based flow cytometric analysis (reference value: 11.4%). Format: toxicity.

In the case of `CN1C(=O)C(Cc2c[nH]c3ccccc23)NC1=S` (stereo not given), the inhibition entry in data set [1] and in data set [2] was “Active” each time. For the same molecule, the inhibition entry in data set [3] and in data set [4] was “inactive” each time.

As to `CC(C)(C)C(=O)N1N=CC[C@H]1c1ccccc1`, the inhibition entry in data set [5] and in data set [2] was “Active” each time. The inhibition result in data set [6] and in data set [4] was “inactive” throughout.

As for `C[C@@H]1CC([C@H](O)CC2CC(=O)NC(=O)C2)C(=O)[C@@H](C)C1` (stereo not given in full), the Activity in data set [7] was 22%; in data set [8], 60%.

For the origin of these results see ChEMBL document CHEMBL5649166, “RIP3 induces apoptosis independent of pronecrotic kinase activity” (Mol Cell, 2014).
